Test results published in ChEMBL document CHEMBL1132825, “Aminoanthraquinones as novel ligands at the polyamine binding site on the N-methyl-D-aspartate receptor complex” (Bioorg Med Chem Lett, 2000).
pIC50: −log10 of the molar value.

Columns and labels:
Glutamate NMDA receptor [1] = test: Displacement of [3H]MK-801 from N-methyl-D-aspartate glutamate receptor; type: protein-complex assay, Rattus norvegicus
Glutamate NMDA receptor [2] = test: Displacement of [3H]-SPD from N-methyl-D-aspartate glutamate receptor; type: protein-complex assay, Rattus norvegicus

SMILES | pIC50 (Glutamate NMDA receptor [1]) | pIC50 (Glutamate NMDA receptor [2])
Nc1ccc(O)c2c1C(=O)c1c(N)ccc(O)c1C2=O | < 3.00 | < 3.00
Nc1ccc(N)c2c1C(=O)c1ccccc1C2=O | 3.25 | 3.39
Nc1ccc2c(c1)C(=O)c1ccc(N)cc1C2=O | < 3.00 | < 3.00
Nc1ccc(N)c2c1C(=O)c1c(N)ccc(N)c1C2=O | < 3.00 | < 3.00
O=C1c2ccccc2C(=O)c2ccccc21 [ANTHRAQUINONE] | < 3.00 | < 3.00

The next compounds have a higher pIC50 (Glutamate NMDA receptor [1]) than those just listed; values first:

pIC50 (Glutamate NMDA receptor [1]) | pIC50 (Glutamate NMDA receptor [2]) | SMILES
3.38 | 3.22 | Nc1ccc2c(c1N)C(=O)c1ccccc1C2=O
3.49 | 3.47 | Nc1cccc2c1C(=O)c1cccc(N)c1C2=O
3.63 | 3.74 | Nc1cccc2c1C(=O)c1c(N)ccc(N)c1C2=O
3.80 | 3.75 | Nc1ccc(O)c2c1C(=O)c1ccccc1C2=O
3.85 | 3.66 | Nc1cccc2c1C(=O)c1ccccc1C2=O
3.92 | 3.94 | Nc1ccc2c(c1)C(=O)c1ccccc1C2=O
